According to US20240254118A1, “PRMT5 INHIBITORS AND USES THEREOF” (Gilead Sciences, Inc., priority 2022, published 2024):

Legend:
[1] = tested on: SDMA signal (PRMT5 inhibition) in HCT116 MTAP-deleted cells; experiment: Symmetric di-methyl arginine image-based high content screen assay (SDMA assay), HCT116 MTAP-deleted; format: cell-based; settings: SDMA assay; for EC50: Homo sapiens, HCT-116, 72 h, 3 days of treatment, cell line not given, taken as HCT116 MTAP-deleted, read-out: EC50 (SDMA assay); for EC50 selectivity (SDMA assay): taken as HCT116 WT versus MTAP-deleted
Method: Symmetric di-methyl arginine image-based high content screen assay (SDMA assay) was performed in HCT116 WT and HCT116 MTAP-deleted cell lines to measure Symmetric Di-methyl Arginine (SDMA) signal reduction after selective PRMT5 inhibition in the MTAP-deleted cells.
Briefly, the same compound plates were generated as mentioned in the previous section of Cell viability assay on Day −1.
On Day 3, the cells were fixed by adding 45 μl of 8% neutralized formalin solution to each well using EL460 liquid dispenser 5 μl cassette and the cells were incubated for 30 minutes at room temperature. The formalin solution was washed off with […] phosphate buffered saline (dPBS), the 0.1% Triton X-100 solution in dPBS was used to permeabilize the cells for 15 minutes at room temperature. The triton solution was aspirated, 50 μl of Odyssey Blocking buffer+0.05% Tween20 was added and the plate was incubated at room temperature for 30 minutes.
The blocking solution was removed, a 20 μl of SDMA antibody (Cell Signaling Technology, Cat no. 13222) diluted 1:500 in Odyssey Blocking buffer+0.05% Tween20 was added and the plate was incubated at 4° C. overnight. Next day, the primary SDME antibody solution was washed from each well three times with 0.05% Tween20 in dPBS (PBST).
A 30 μl of the secondary antibody, a Goat anti-Rabbit Alexa Fluor Plus 488 (Invitrogen, Cat no. PIA32731) was diluted 1:500 in Odyssey Blocking buffer+0.05% Tween20 and the plate was incubated for 1.5 hours in dark at room temperature. The secondary antibody solution was removed, 30 μl of 5 mg/ml DAPI solution diluted 1:2000 in dPBS was added and the plate was incubated for 30 minutes in dark at room temperature. The DAPI solution was aspirated and the wells were washed six times with dPBS.
The SDMA signal and DAPI signal per cell were counted using a Cellomics CX7 LZR instrument reading under 488 and 405 nm laser, respectively. The SDMA signal was quantified by mean average intensity per cell from Alexa Fluor Plus 488 after the cell was defined with DAPI.

[2] = tested on: HCT116 MTAP-deleted cells; experiment: Cell viability assay (CellTiter-Glo, 7 days), HCT116 MTAP-deleted; settings: Homo sapiens, HCT-116, 168 h

EC50 [1]	EC50 selectivity (SDMA assay) [1]	Structure (SMILES)	CC50 [2]
< 1 nM	73	CC(=O)N(C)N(Cc1ccc(C(F)(F)F)cn1)C(=O)c1ccc2nc(N)c3cnn(C)c3c2c1 [Example 33, N′-acetyl-4-amino-N′, 1-dimethyl-N-[[5-(trifluoromethyl)-2-pyridyl]methyl]pyrazolo[4,3-c]quinoline-8-carbohydrazide]	< 100 nM
1 to 5 nM	8	CC(=O)N(C)N(Cc1ccc(C(F)(F)F)cn1)C(=O)c1cc2c(cc1F)nc(N)c1cnn(C)c12 [Example 34, N′-acetyl-4-amino-7-fluoro-N′, 1-dimethyl-N-[[5-(trifluoromethyl)-2-pyridyl]methyl]pyrazolo[4,3-c]quinoline-8-carbohydrazide]	< 100 nM
< 1 nM	12	CCOC(=O)N(C)N(Cc1ccc(C(F)(F)F)cn1)C(=O)c1ccc2nc(N)c3cnn(C)c3c2c1 [Example 38, ethyl N-[(4-amino-1-methyl-pyrazolo[4,3-c]quinoline-8-carbonyl)-[[5-(trifluoromethyl)-2-pyridyl]methyl]amino]-N-methyl-carbamate]	< 100 nM
< 1 nM	25	CC(=O)N(C)N(Cc1ccc(C(F)(F)F)cc1F)C(=O)c1ccc2nc(N)c3cnn(C)c3c2c1 [Example 39, N′-acetyl-4-amino-N-[[2-fluoro-4-(trifluoromethyl)phenyl]methyl]-N′,1-dimethyl-pyrazolo[4,3-c]quinoline-8-carbohydrazide]	< 100 nM
< 1 nM	8	CC(=O)N(C)N(Cc1ccc(C(F)(F)F)cc1F)C(=O)c1cc2c(cc1F)nc(N)c1cnn(C)c12 [Example 40, N′-acetyl-4-amino-7-fluoro-N-[[2-fluoro-4-(trifluoromethyl)phenyl]methyl]-N′,1-dimethyl-pyrazolo[4,3-c]quinoline-8-carbohydrazide]	< 100 nM
< 1 nM	46	CCC(=O)N(C)N(Cc1ccc(C(F)(F)F)cn1)C(=O)c1ccc2nc(N)c3cnn(C)c3c2c1 [Example 41, 4-amino-N′, 1-dimethyl-N′-propanoyl-N-[[5-(trifluoromethyl)-2-pyridyl]methyl]pyrazolo[4,3-c]quinoline-8-carbohydrazide]	< 100 nM
< 1 nM	14	CCC(=O)N(C)N(Cc1ccc(C(F)(F)F)cn1)C(=O)c1cc2c(cc1F)nc(N)c1cnn(C)c12 [Example 42, 4-amino-7-fluoro-N′, 1-dimethyl-N′-propanoyl-N-[[5-(trifluoromethyl)-2-pyridyl]methyl]pyrazolo[4,3-c]quinoline-8-carbohydrazide]	< 100 nM
1 to 5 nM	187	Cn1ncc2c(N)nc3cc(F)c(C(=O)N(Cc4ccc(C(F)(F)F)cn4)N4CCC(C)(C)C4=O)cc3c21 [Example 44, 4-amino-N-(3,3-dimethyl-2-oxo-pyrrolidin-1-yl)-7-fluoro-1-methyl-N-[[5-(trifluoromethyl)-2-pyridyl]methyl]pyrazolo[4,3-c]quinoline-8-carboxamide]	< 100 nM
< 1 nM	63	CCOC(=O)NN(Cc1ccc(C(F)(F)F)cn1)C(=O)c1ccc2nc(N)c3cnn(C)c3c2c1 [Example 45, ethyl N-[(4-amino-1-methyl-pyrazolo[4,3-c]quinoline-8-carbonyl)-[[5-(trifluoromethyl)-2-pyridyl]methyl]amino]carbamate]	< 100 nM
< 1 nM	6	CCOC(=O)NN(Cc1ccc(C(F)(F)F)cn1)C(=O)c1cc2c(cc1F)nc(N)c1cnn(C)c12 [Example 46, ethyl N-[(4-amino-7-fluoro-1-methyl-pyrazolo[4,3-c]quinoline-8-carbonyl)-[[5-(trifluoromethyl)-2-pyridyl]methyl]amino]carbamate]	< 100 nM

Second part, the molecule before the results:

Structure (SMILES)	EC50 [1]	EC50 selectivity (SDMA assay) [1]	CC50 [2]
Cn1ncc2c(N)nc3ccc(C(=O)N(Cc4ccc(C(F)(F)F)cn4)N4CCCCC4)cc3c21 [Example 28, 4-amino-1-methyl-N-(1-piperidyl)-N-[[5-(trifluoromethyl)-2-pyridyl]methyl]pyrazolo[4,3-c]quinoline-8-carboxamide]	< 1 nM	134	< 100 nM
Cn1ncc2c(N)nc3ccc(C(=O)N(Cc4ccc(C(F)(F)F)cn4)N4CCCCC4=O)cc3c21 [Example 29, 4-amino-1-methyl-N-(2-oxo-1-piperidyl)-N-[[5-(trifluoromethyl)-2-pyridyl]methyl]pyrazolo[4,3-c]quinoline-8-carboxamide]	< 1 nM	43	< 100 nM
Nc1nc2ccc(C(=O)N(Cc3ccc(C(F)(F)F)cn3)N3CCCCC3=O)cc2c2c1COC2 [Example 30, 4-amino-N-(2-oxo-1-piperidyl)-N-[[5-(trifluoromethyl)-2-pyridyl]methyl]-1,3-dihydrofuro[3,4-c]quinoline-8-carboxamide]	< 1 nM	101	< 100 nM
Cn1ncc2c(N)nc3ccc(C(=O)N(Cc4ccc(C(F)(F)F)cn4)N4CCC(C)(C)CC4=O)cc3c21 [Example 31, 4-amino-N-(4,4-dimethyl-2-oxo-1-piperidyl)-1-methyl-N-[[5-(trifluoromethyl)-2-pyridyl]methyl]pyrazolo[4,3-c]quinoline-8-carboxamide]	1 to 5 nM	323	< 100 nM
CN1CCN(N(Cc2ccc(C(F)(F)F)cn2)C(=O)c2ccc3nc(N)c4cnn(C)c4c3c2)C1=O [Example 32, 4-amino-1-methyl-N-(3-methyl-2-oxo-imidazolidin-1-yl)-N-[[5-(trifluoromethyl)-2-pyridyl]methyl]pyrazolo[4,3-c]quinoline-8-carboxamide]	< 1 nM	74	< 100 nM
Cn1ncc2c(N)nc3ccc(C(=O)N(Cc4ccc(C(F)(F)F)cn4)N4Cc5ccccc5C4=O)cc3c21 [Example 35, 4-amino-1-methyl-N-(1-oxoisoindolin-2-yl)-N-[[5-(trifluoromethyl)-2-pyridyl]methyl]pyrazolo[4,3-c]quinoline-8-carboxamide]	< 1 nM	103	< 100 nM
Cn1ncc2c(N)nc3ccc(C(=O)N(Cc4ccc(C(F)(F)F)cn4)N4CCc5ccccc5C4=O)cc3c21 [Example 36, 4-amino-1-methyl-N-(1-oxo-3,4-dihydroisoquinolin-2-yl)-N-[[5-(trifluoromethyl)-2-pyridyl]methyl]pyrazolo[4,3-c]quinoline-8-carboxamide]	< 1 nM	30	< 100 nM
CN(C(=O)c1ccccc1)N(Cc1ccc(C(F)(F)F)cn1)C(=O)c1ccc2nc(N)c3cnn(C)c3c2c1 [Example 37, 4-amino-N′-benzoyl-N′, 1-dimethyl-N-[[5-(trifluoromethyl)-2-pyridyl]methyl]pyrazolo[4,3-c]quinoline-8-carbohydrazide]	1 to 5 nM	141	100 to 1000 nM
Cn1ncc2c(N)nc3ccc(C(=O)N(Cc4ccc(C(F)(F)F)cn4)N4CCC(C)(C)C4=O)cc3c21 [Example 43, 4-amino-N-(3,3-dimethyl-2-oxo-pyrrolidin-1-yl)-1-methyl-N-[[5-(trifluoromethyl)-2-pyridyl]methyl]pyrazolo[4,3-c]quinoline-8-carboxamide]	1 to 5 nM	226	< 100 nM
CC(=O)N(C)N(Cc1ccc(F)cc1F)C(=O)c1ccc2nc(N)c3cnn(C)c3c2c1 [Example 47, N′-acetyl-4-amino-N-[(2,4-difluorophenyl)methyl]-N′,1-dimethyl-pyrazolo[4,3-c]quinoline-8-carbohydrazide]	< 1 nM	121	< 100 nM
CC(=O)N(C)N(Cc1ccc(F)c(F)c1F)C(=O)c1ccc2nc(N)c3cnn(C)c3c2c1 [Example 48, N′-acetyl-4-amino-N′,1-dimethyl-N-[(2,3,4-trifluorophenyl)methyl]pyrazolo[4,3-c]quinoline-8-carbohydrazide]	1 to 5 nM	326	< 100 nM
CC(=O)N(C)N(Cc1cc(F)c(F)cc1F)C(=O)c1ccc2nc(N)c3cnn(C)c3c2c1 [Example 49, N′-acetyl-4-amino-N′,1-dimethyl-N-[(2,4,5-trifluorophenyl)methyl]pyrazolo[4,3-c]quinoline-8-carbohydrazide]	< 1 nM	163	< 100 nM
